These results are taken from ChEMBL document CHEMBL5154655, “Identification of indole-based activators of insulin degrading enzyme” (Eur J Med Chem, 2022).

In general, pKa refers to the pH at which an ionisable group is half protonated. The EC50 is the midpoint of the concentration-response curve. The term logD denotes lipophilicity at a set pH, counting ionised and neutral species. Higher therefore signals higher lipophilicity. By half-life is commonly meant how long it takes for the measured level to halve.

The structures appear in SMILES notation. In brackets after ≈: the same amount, converted by molar mass.

A short description of data set [1]: Solubility of the compound at 100 uM. In kind it is physicochemical.
Data set [2] in a line: Dissociation constant, pKa of the compound. The format is physicochemical.
For another data set, the target named is T1, Insulin-degrading enzyme (Homo sapiens, UniProt P14735).
T1 sequence (P14735 whole entry): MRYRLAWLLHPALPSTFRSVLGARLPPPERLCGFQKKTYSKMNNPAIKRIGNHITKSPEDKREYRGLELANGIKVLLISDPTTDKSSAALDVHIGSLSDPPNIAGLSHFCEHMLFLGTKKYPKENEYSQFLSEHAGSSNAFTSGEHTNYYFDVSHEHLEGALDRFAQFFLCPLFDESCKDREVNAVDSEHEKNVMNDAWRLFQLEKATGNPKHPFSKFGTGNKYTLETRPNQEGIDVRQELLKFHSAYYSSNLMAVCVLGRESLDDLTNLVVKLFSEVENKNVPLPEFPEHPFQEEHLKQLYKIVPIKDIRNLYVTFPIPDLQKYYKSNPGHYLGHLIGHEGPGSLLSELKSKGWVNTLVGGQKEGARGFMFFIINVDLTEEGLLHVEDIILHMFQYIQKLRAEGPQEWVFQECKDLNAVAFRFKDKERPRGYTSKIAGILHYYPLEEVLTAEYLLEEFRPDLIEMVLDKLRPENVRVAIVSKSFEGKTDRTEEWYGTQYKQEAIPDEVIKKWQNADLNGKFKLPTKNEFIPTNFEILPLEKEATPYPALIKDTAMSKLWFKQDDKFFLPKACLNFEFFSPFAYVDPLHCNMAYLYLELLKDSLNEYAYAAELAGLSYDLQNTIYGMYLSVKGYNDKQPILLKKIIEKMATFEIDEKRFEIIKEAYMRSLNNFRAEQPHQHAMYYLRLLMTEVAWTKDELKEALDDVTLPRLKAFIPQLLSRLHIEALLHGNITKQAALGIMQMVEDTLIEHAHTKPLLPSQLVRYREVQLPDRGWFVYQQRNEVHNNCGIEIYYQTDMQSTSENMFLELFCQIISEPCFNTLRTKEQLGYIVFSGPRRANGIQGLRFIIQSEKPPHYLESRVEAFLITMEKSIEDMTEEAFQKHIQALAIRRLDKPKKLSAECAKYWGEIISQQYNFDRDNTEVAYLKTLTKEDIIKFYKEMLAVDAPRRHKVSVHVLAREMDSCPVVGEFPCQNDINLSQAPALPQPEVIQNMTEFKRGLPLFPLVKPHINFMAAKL
Nature of the data set: Activation of human recombinant IDE using ATTO 655-Cys-Lys-Leu-Val-Phe-Phe-Ala-Glu-Asp-trp as substrate incubated for 10 mins followed by substrate addition and measured after 20 mins by fluorescence spectrophotometer analysis.

A short description of data set [3]: Lipophilicity, logD of the compound in 1-octanol and phosphate buffer at pH 7.4 incubated for 2 hrs under shaking condition by LC-MS/MS analysis. The format is physicochemical. The note with it: 1-octanol/phosphate buffer.
The nature of data set [4]: Solubility of the compound at 15 uM. The format is physicochemical.
A short description of data set [5]: Aqueous thermodynamic solubility of the compound in phosphate buffer/MeOH at pH 7.4 measured after 24 hrs by LC-MS/MS analysis. The note with it: read-out: Therm_solubility. The format is physicochemical.
Data set [6] in a line: Stability in rat plasma assessed as half life at 10 uM. In kind it is ADME, cell-free.

For `O=C(CCCc1cn(S(=O)(=O)c2ccc(F)cc2)c2ccccc12)NCCCn1ccnc1`, the solubility result in data set [1] is given as “Insoluble”.
Consider `O=C(CCCc1cn(S(=O)(=O)c2ccccc2)c2ccccc12)NCCCN1CCCC1`, for which the pKa in data set [2] worked out at 8.8.
As to `O=C(CCCc1cn(S(=O)(=O)c2cccc3nsnc23)c2ccccc12)NCCCn1ccnc1`, in data set [1], the solubility entry is listed as “Insoluble”.
For the molecule `CS(=O)(=O)n1cc(CCCC(=O)NCCCn2ccnc2)c2ccccc21`, the EC50 on Insulin-degrading enzyme is 26.9 µM.
For the molecule `O=C(CCCc1cn(C(=O)c2ccc(F)cc2)c2ccccc12)NCCCn1ccnc1`, the solubility result in data set [1] is on record as “Insoluble”.
As for `O=C(NCCCn1ccnc1)NCCc1cn(S(=O)(=O)c2ccccc2)c2ccccc12`, the EC50 on Insulin-degrading enzyme is 10.2 µM.
`O=C(CCCCc1cn(S(=O)(=O)c2ccccc2)c2ccccc12)NCCCn1ccnc1`: the solubility entry in data set [1] was “Insoluble”.
`N[C@@H](Cc1cn(S(=O)(=O)c2ccccc2)c2ccccc12)C(=O)NCCCn1ccnc1`: at Insulin-degrading enzyme, the concentration giving a half-maximal response (EC50) is 14.5 µM.
Consider `O=C(CCCc1cn(C(=O)c2ccc(Cl)cc2)c2ccccc12)NCCCn1ccnc1`, for which the solubility result in data set [1] is given as “Insoluble”.
Consider `O=C(CCCc1cn(S(=O)(=O)c2ccccc2)c2ccccc12)NCCCn1ccnc1`, for which the EC50 at Insulin-degrading enzyme was 13.2 µM. Also, the logD at 2 h in data set [3] is 2.7. In data set [2], the pKa is 6.9. Moreover, the solubility entry in data set [4] was “Soluble”.
Take `O=C(CCCc1cn(S(=O)(=O)c2cccc(F)c2)c2ccccc12)NCCCn1ccnc1`: the solubility result in data set [1] is reported as “Insoluble”. The EC50 at Insulin-degrading enzyme was 10.2 µM.
Regarding `O=C(NCCCn1ccnc1)c1cn(S(=O)(=O)c2ccccc2)c2ccccc12`, the solubility entry in data set [1] is “Insoluble”.
`O=C(CCCc1cn(S(=O)(=O)c2cccnc2)c2ccccc12)NCCCn1ccnc1`: the EC50 at Insulin-degrading enzyme is 26.9 µM.
On to `O=C(CCCc1cn(S(=O)(=O)c2ccc(-c3ccccc3)cc2)c2ccccc12)NCCCn1ccnc1`, for which the solubility entry in data set [1] is “Insoluble”.
`O=C(CCCc1cn(S(=O)(=O)c2ccccc2)c2ccccc12)NCCCc1c[nH]cn1`: the pKa in data set [2] is 7.
As to `O=C(CCCc1cn(C(=O)c2cccs2)c2ccccc12)NCCCn1ccnc1`, the concentration for a half-maximal effect (EC50) at Insulin-degrading enzyme is 21.4 µM.
On to `O=C(CCCc1cn(S(=O)(=O)c2cccs2)c2ccccc12)NCCCn1ccnc1`, for which, in data set [3], the log distribution coefficient (logD) at 2 h came to 2.7. Also, the solubility thermodynamic at 24 h in data set [5] was determined as 8.9 µM (≈ 4.06 µg/mL). Moreover, the half-life at 10 µM in data set [6] was over 24 h.
On to `O=C(CCCc1cn(S(=O)(=O)c2ccsc2)c2ccccc12)NCCCn1ccnc1`, for which, at Insulin-degrading enzyme, the EC50 is 13.8 µM.
Same read-out and setting: next, `O=C(CCCC1C(=O)Nc2ccccc21)NCCCn1ccnc1` (stereo unspecified): 38.9 µM; `O=C(CCCc1nn(S(=O)(=O)c2ccccc2)c2ccccc12)NCCCn1ccnc1`: 12.3 µM; `Cn1cnc(S(=O)(=O)n2cc(CCCC(=O)NCCCn3ccnc3)c3ccccc32)c1`: 28.8 µM.
For `O=C(CCCc1cn(-c2ccccc2)c2ccccc12)NCCCn1ccnc1`, the solubility entry in data set [1] was “Insoluble”.
Consider `CN(CCCn1ccnc1)C(=O)CCCc1cn(S(=O)(=O)c2ccccc2)c2ccccc12`, for which, on Insulin-degrading enzyme, the half-maximal effective concentration (EC50) was 14.1 µM.
As for `O=C(CCc1cn(S(=O)(=O)c2ccccc2)c2ccccc12)NCCCn1ccnc1`, the EC50 at Insulin-degrading enzyme was 15.5 µM.
As to `O=C(CCCc1cn(S(=O)(=O)c2ccccc2F)c2ccccc12)NCCCn1ccnc1`, the solubility entry in data set [1] is recorded as “Insoluble”.
